This passage reports Kd results from publication PMC8858318, “Targeting autophagy peptidase ATG4B with a novel natural product inhibitor Azalomycin F4a for advanced gastric cancer” (Cell Death & Disease, 2022).

For the experiment, the target named is T1, ATG4B (Homo sapiens, UniProt Q9Y4P1).
T1 sequence (Q9Y4P1 1-393): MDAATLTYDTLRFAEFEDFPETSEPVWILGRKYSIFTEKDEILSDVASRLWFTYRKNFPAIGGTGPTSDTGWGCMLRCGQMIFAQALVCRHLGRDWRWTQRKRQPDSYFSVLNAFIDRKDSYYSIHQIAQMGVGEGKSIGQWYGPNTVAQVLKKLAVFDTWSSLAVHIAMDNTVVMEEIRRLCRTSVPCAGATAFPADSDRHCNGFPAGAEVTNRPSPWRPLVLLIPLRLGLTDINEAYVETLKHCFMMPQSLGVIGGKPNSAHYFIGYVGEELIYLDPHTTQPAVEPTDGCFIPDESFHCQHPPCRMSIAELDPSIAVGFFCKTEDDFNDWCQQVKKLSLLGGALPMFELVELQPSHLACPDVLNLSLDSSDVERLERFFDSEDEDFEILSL
In words: SPR (Biacore 8K, immobilized purified ATG4B); also FRET activity assay and gel-based FRET-GATE16 cleavage assay. The format is binding. In general terms: Surface plasmon resonance follows binding to a sensor surface in real time, without labels.

pKd: −log10 of the molar value.

As a reminder, the pKd is −log10 of the Kd, conventionally taken in molar units. A low value points to a high Kd. For `CN=C(N)NCCC/C=C/CCCC(C)C1OC(=O)/C(C)=C\C=C/C(C)C(O)CC(O)C(C)C(O)CCC(C)C(O)CC2(O)OC(CC(OC(=O)CC(=O)O)CC(O)CC(O)CC(O)/C(C)=C\C=C/C1C)CC(O)C2O` (stereo not shown) [Am-F4a, Azalomycin F4a], the pKd is 4.93.
